Results reported in ChEMBL document CHEMBL4130573, “Antitubercular and Cytotoxic Chlorinated seco-Cyclohexenes from Uvaria alba” (J Nat Prod, 2017).
≈ marks a conversion by molar mass, not a printed value. Calls of active or inactive are those of the source. No cut-off for these calls is given here.

Columns and labels:
[1] = test system: Mycobacterium tuberculosis; experiment: Antitubercular activity against Mycobacterium tuberculosis H37Rv by MABA method; format: functional
HeLa [2] = experiment: Cytostatic activity against human HeLa cells at 1 to 50 uM by Cell-titer blue assay; format: functional, cell-based
HeLa [3] = experiment: Cytotoxic activity against human HeLa cells by Cell-titer blue assay; format: functional, cell-based
HUVEC = experiment: Antiproliferative activity against HUVEC cells by Cell-titer blue assay; format: functional, cell-based; details: Homo sapiens
K562 = experiment: Antiproliferative activity against human K562 cells by Cell-titer blue assay; format: functional, cell-based

For `CC(=O)OC/C(=C\[C@@H](Cl)[C@H](O)COC(=O)c1ccccc1)COC(=O)c1ccccc1`, the MIC [1] was 26 µM (≈ 11.6 µg/mL) and the Activity (HeLa [2]) was “Active”.

In the case of `CC(=O)O[C@@H]1C(=O)C=COC=C1COC(=O)c1ccccc1`, the MIC [1] is reported as 25 µM (≈ 7.56 µg/mL), the IC50 (HeLa [3]) is reported as 25.5 µM and the IC50 (HUVEC) is reported as 9.9 µM. The IC50 (K562) was 7.9 µM.

In the case of `O=C(OC/C=C\[C@H](Cl)[C@@](O)(CO)COC(=O)c1ccccc1)c1ccccc1` (relative stereo), the MIC [1] is reported as 38 µM (≈ 15.4 µg/mL), the IC50 (HeLa [3]) is reported as > 45 µM and the IC50 (HUVEC) is reported as > 45 µM. For the same molecule, the IC50 (K562) was > 45 µM.
